# Measured values: patent publication US6242478A, “Five member ring sulfenate esters and thiosulfinate esters” (Wake Forest University, priority 1999, dated 2001)
# Read-outs that look alike come from different tables or passages of the source.
# Legend:
# [1] = target: T1, NCp7 (Human immunodeficiency virus type 1 group M subtype B, UniProt P04591); details: DFT calculation (Maynard et al., 1998); cited from earlier work
# T1 construct: HIV-1 nucleocapsid protein (NCp7)
# [2] = system: HIV-1RF; assay: XTT cytoprotection assay, anti-HIV-1 activity (EC50) in CEM-SS cells; assay type: cell-based
# Source text: (§1) Both the XTT and monocyte/macrophage assays were used because infection of monocyte/macrophage cultures is thought to resemble infection of the nonproliferating pool of cells in vivo, while the parameters for the CEM-SS cells (XTT assay) are thought to reflect more closely the parameters for highly proliferating cells such as bone marrow and intestinal cells. The CEM-SS cell (XTT) assay is a more sensitive indicator of toxicity and all compounds disclosed herein have been screened in this assay.
# Based on these preliminary screens, it is contemplated that an aromatic or large substituent at R1 (compare entries 1 & 4, 9 & 10) and a small substituent at R2 (compare entries 1, 2, & 3; 7, 8, & 9) may be best for anti-HIV-1 activity. Sulfur heterocycles containing more than 6 atoms don't appear to be active (entries 13 & 14). […] As observed for 8 previously (Rice et al., 1997), anti-HIV-1 activity and toxicity of 53a went down when treated with 2 equivalents of GSH (entry 6).
# [3] = target: T2, NCp7 (Human immunodeficiency virus type 1 group M subtype B, UniProt P12493); assay: NCp7 Trp37 fluorescence decrease assay; assay type: biochemical, HIV-1; details: for NCp7 Trp37 Assay, % Decrease RFU/30 min, without GSH: 50 μM
# T2 construct: HIV-1 nucleocapsid protein (NCp7)
# [4] = system: CEM-SS cells; assay: XTT assay, toxicity (IC50) in CEM-SS cells; assay type: cell-based; details: for IC50: Homo sapiens, CEM-SS, Table 3, read-out: XTT Anti-HIV-1 Assay IC50
# Source text: as §1
# [5] = system: Ferritin H mRNA; assay: Ferritin H mRNA induction, Northern blot; assay type: cell-based, mouse; details: 80 μM, 24 hours
# Description: (§2) BNL.CL2 cells were treated with Oltipraz, compound 121 described above, and compound 123 described above. All compounds were applied to the cells at 100 micromolar concentration for 24 hours.
# (§3) Cells were exposed to compounds at a final concentration of 80 μM for 24 hours. RNA was isolated and analyzed by Northern blotting for the expression of the indicated genes. Control cells were incubated with vehicle alone (0.4% DMSO).
# (§4) Northern blot: Treatment of BNL.CL2 cells with 100 μM Oltipraz, ALH-556, and ALH-562, ALH-561, ED 13.4, ED 14.6, DCF 070, ALH-490
# (§5) BNL.CL2 cells (normal mouse embryonic liver cell line) were plated at ~3×10^5 cells/ml, grown for 16-24 hours, and treated with 0 μM and 100 μM Oltipraz, ALH-556 (121), and ALH-562 (123) for 24 hours. All three compounds were dissolved in DMSO and the final DMSO concentration present in all treatment conditions was 0.2%. BNL.CL2 cells were harvested by trypsinization and total RNA was isolated using the Trizol reagent (Gibco BRL) according to the manufacturer's procedures. 15 μg of RNA were run on a 1.1% agarose/6.6% formaldehyde gel and transferred overnight onto nitrocellulose membranes by capillary transfer using 20×SSC as transfer buffer. Subsequent to RNA transfer, the nitrocellulose membrane was baked at 80° C. for 2 hours. RNA was analyzed using a radiolabeled mouse ferritin H and human GST-α c-DNA. A human β-actin probe was used as an internal standard. The c-DNA probes were labeled with [α^32 P]dCTP by a random prime labeling. Hybridization of the c-DNA probes to the nitrocellulose membrane was performed at 68° C. for 60 minutes using the Quick-Hyb solution (Stratagene). Membranes were subjected to phosphoimager analysis after hybridization.
# [6] = system: GST alpha mRNA in BNL.CL2 cells; assay: GST alpha mRNA induction, Northern blot; assay type: cell-based, mouse; details: for GST α induction (mRNA): 80 μM, Northern blot
# Description: as §2, §3, §4, §5
# [7] = system: DT-diaphorase (NQO1) mRNA; assay: NQO1 mRNA induction, Northern blot; assay type: cell-based, mouse; details: 80 μM, 24 hours
# Description: as §2, §3, §4, §5
# [8] = system: NCp7 protein; details: in words; cited from earlier work
# [9] = system: HIV-1ADA; details: in words; fresh human monocyte/macrophage cultures; cited from earlier work
# [10] = system: HIV-1RF; details: cited from earlier work
# [11] = system: CEM-SS cells; details: toxicity, CEM-SS cells; read-out: XTT assay IC50; cited from earlier work
# [12] = Human immunodeficiency virus 1, CEM-SS, Table 3, read-out: XTT Anti-HIV-1 Assay EC50
# [13] = Human immunodeficiency virus 1, CEM-SS, read-out: Maximum cytoprotection
structure (smiles),measurement,setting,value
"NS(=O)(=O)c1ccc(NC(=O)c2ccccc2SSc2ccccc2C(=O)Nc2ccc(S(N)(=O)=O)cc2)cc1 [3, R'=C(O)NH-phenyl-SO2 NH2]",ratio of electronegativity to hardness (.chi.^2 /.eta.),[1],0.2935
"CC(=O)NS(=O)(=O)c1ccc(NC(=O)c2ccccc2SSc2ccccc2C(=O)Nc2ccc(S(=O)(=O)NC(C)=O)cc2)cc1 [3, R'=C(O)NH-phenyl-SO2 NHC(O)CH3]",ratio of electronegativity to hardness (.chi.^2 /.eta.),[1],0.3098
COC(=O)C1=C(c2ccccc2)[S+]([O-])SC1 (stereo not shown) [53a],anti-HIV-1 activity with GSH,"[2]; 2 equivalents of GSH, in words",went down
same,EC50,"[2]; Human immunodeficiency virus 1, CEM-SS, + GSH, 2 equivalents, read-out: XTT Anti-HIV-1 Assay EC50 with GSH",17.3 µM
same,EC50,[2]; [12],6 µM
same,"EC50 relative to the best dithiane (8, NSC 624151)",[2]; in words,below that of the best dithiane
same,cytoprotection / anti-HIV-1 activity,[2]; in words,possess anti-HIV-1 activity
same,"NCp7 Trp37 Assay, % Decrease RFU/30 min, with GSH",[3]; 50 μM with GSH,16.7 % Decrease RFU/30 min
same,"NCp7 Trp37 Assay, % Decrease RFU/30 min, without GSH",[3],13.5 % Decrease RFU/30 min
same,zinc ejecting ability with GSH,"[3]; GSH, in words",little effected by GSH
same,toxicity with GSH,"[4]; 2 equivalents of GSH, in words",went down
same,IC50,[4],18 µM
CCOC(=O)C1=C(c2ccccc2)[S+]([O-])SC1 (stereo not shown) [53b],Emax at 10 µM,[2]; [13],31.6%
same,"NCp7 Trp37 Assay, % Decrease RFU/30 min, without GSH",[3],6.5 % Decrease RFU/30 min
same,IC50,[4],45.7 µM
CC(C)OC(=O)C1=C(c2ccccc2)[S+]([O-])SC1 (stereo not shown) [53c],Emax at 10 µM,[2]; [13],43.3%
same,"NCp7 Trp37 Assay, % Decrease RFU/30 min, without GSH",[3],17.1 % Decrease RFU/30 min
same,IC50,[4],15.2 µM
COC(=O)C1=C(C)[S+]([O-])SC1 (stereo not shown) [53d],Emax at 10 µM,[2]; [13],41.4%
same,"NCp7 Trp37 Assay, % Decrease RFU/30 min, without GSH",[3],14.3 % Decrease RFU/30 min
same,IC50,[4],16.9 µM
CC1=C(C(=O)OC(C)C)CS[S+]1[O-] (stereo not shown) [53e],Emax at 10 µM,[2]; [13],40%
same,"NCp7 Trp37 Assay, % Decrease RFU/30 min, without GSH",[3],10.4 % Decrease RFU/30 min
same,IC50,[4],18.4 µM
CC1=C(c2ccccc2)S(=O)OC1 (stereo not shown) [53f],EC50,[2]; [12],5.9 µM
same,"EC50 relative to the best dithiane (8, NSC 624151)",[2]; in words,below that of the best dithiane
same,cytoprotection / anti-HIV-1 activity,[2]; in words,possess anti-HIV-1 activity
same,"NCp7 Trp37 Assay, % Decrease RFU/30 min, without GSH",[3],0 % Decrease RFU/30 min
same,IC50,[4],16.9 µM
COC(=O)C1=C(c2ccccc2)S(=O)OC1 (stereo not shown) [53h],Emax at 10 µM,[2]; [13],29%
same,"NCp7 Trp37 Assay, % Decrease RFU/30 min, without GSH",[3],0 % Decrease RFU/30 min
same,IC50,[4],22.5 µM
CCOC(=O)C1=C(c2ccccc2)S(=O)OC1 (stereo not shown) [(8) 53g],Emax at 100 µM,"[2]; Human immunodeficiency virus 1, CEM-SS, @ 100 μM, read-out: Maximum cytoprotection",12%
same,"NCp7 Trp37 Assay, % Decrease RFU/30 min, without GSH",[3],26 % Decrease RFU/30 min
same,IC50,[4],213 µM
COC(=O)C1=C(C)S(=O)OC1 (stereo not shown) [(10) 53g],Emax at 3.2 µM,"[2]; Human immunodeficiency virus 1, CEM-SS, @ 3.2 μM, read-out: Maximum cytoprotection",32.6%
same,"NCp7 Trp37 Assay, % Decrease RFU/30 min, without GSH",[3],0.2 % Decrease RFU/30 min
same,IC50,[4],5.3 µM
O=S1(=O)OCC=C1c1ccccc1 [ALH-490],Ferritin H induction (mRNA),[5],+
same,GST α induction (mRNA),[6]; 24 hours,+
same,NQO1 induction (mRNA),[7],+
COC(=O)C1=C(c2ccccc2)[S+]([O-])SC1 (stereo not shown) [DCF 070],Ferritin H induction (mRNA),[5],+
same,GST α induction (mRNA),[6]; 24 hours,+
same,NQO1 induction (mRNA),[7],+
COC(=O)C1=C(C2=CCCCC2)[S+]([O-])SC1 (stereo not shown) [ED 13.4],Ferritin H induction (mRNA),[5],+
same,GST α induction (mRNA),[6]; 24 hours,+
same,NQO1 induction (mRNA),[7],+
CC1=C(C2=CCCCC2)[S+]([O-])SC1 (stereo not shown) [ED 14.6],Ferritin H induction (mRNA),[5],+
same,GST α induction (mRNA),[6]; 24 hours,+
same,NQO1 induction (mRNA),[7],+
"NC(=O)c1cccc(N=O)c1 [NOBA, 3-nitrosobenzamide]",ejection of zinc from NCp7,[8],reacted with the zinc fingers of NCp7 causing zinc ejection
O=S1(=O)CC(CO)(CO)CS1 [compound 6],ejection of zinc from NCp7,[8],promoted ejection of zinc
same,activity against replication of monocytotropic HIV-1ADA,[9],active
same,EC50,"[10]; CEM-SS cells, HIV-1RF, read-out: XTT assay EC50",34 µM
same,activity against HIV-1 in XTT-based cytoprotection assay,[10]; in words,active
same,IC50,[11],200 µM
"COc1ccc(C2=C(C)COS2=O)cc1 (stereo not shown) [compound 121, 4-Methyl-5-(4-methoxy)phenyl-1,2-oxathiol-4-en-1-yl Oxide]",activation at 100 µM,"[6]; Mus musculus, BNL CL.2, BNL.CL2 cells, 100 micromolar, 24 hours, read-out: increase in GST alpha mRNA levels",300%
same,"inducing activity (GST, NQO1 and Ferritin H)",[6]; in words,high levels of inducing activity
CC(C)(C)c1cc(O)ccc1O [t-BHQ],Ferritin H induction (mRNA),[5],+
same,GST α induction (mRNA),[6]; 24 hours,+
same,NQO1 induction (mRNA),[7],+
